# Results reported in patent publication US20210238197A1, “NOVEL OXOQUINOLIZINE COMPOUNDS FOR THE TREATMENT AND PROPHYLAXIS OF BACTERIAL INFECTION” (Hoffmann-La Roche Inc., priority 2018, published 2021).
# Where two headings read alike, the source gives them in different places.
# What was measured:
# [1] = system: S. aureus (ATCC29213); test: 50% growth inhibitory concentration (IC50) determination assay, S. aureus; format: cell-based; conditions: Staphylococcus aureus, ATCC29213; Iso-Sensitest broth, growth by OD 600 nm over 16 h; <0.098 = detection limit
# Description: (§1) The in vitro antimicrobial activity of the compounds against S. aureus (ATCC29213), K. pneumoniae (ATCC10031), and A. baumannii (ATCC17978), was determined according to the following procedure: The assay used a 10-points Iso-Sensitest broth medium to measure quantitatively the in vitro activity of the compounds against S. aureus ATCC29213, K. pneumoniae ATCC 10031, and A. baumannii ATCC17978. Stock compounds in DMSO were serially two-fold diluted (range from 50 to 0.097 μM final concentration) in 384 wells microtiter plates and inoculated with 49 μL the bacterial suspension in Iso-Sensitest broth medium to have a final cell concentration of ˜5×10^5 CFU/mL in a final volume/well of 50 μL/well. Microtiter plates were incubated at 35±2° C. Bacterial cell growth was determined with the measurement of optical density at λ=600 nm each 20 minutes over a time course of 16 h.
# [2] = system: K. pneumoniae (ATCC10031); test: 50% growth inhibitory concentration (IC50) determination assay, K. pneumoniae; format: cell-based; conditions: Klebsiella pneumoniae, ATCC10031; Iso-Sensitest broth, growth by OD 600 nm over 16 h; <0.098 = detection limit
# Description: as §1
# [3] = system: A. baumannii (ATCC17978); test: 50% growth inhibitory concentration (IC50) determination assay, A. baumannii; format: cell-based; conditions: Acinetobacter baumannii, ATCC17978; Iso-Sensitest broth, growth by OD 600 nm over 16 h; <0.098 = detection limit
# Description: as §1
# [4] = system: multiple species and strains; test: microbe, parasite or virus in culture; parameters: MIC S9 / MIC S7 / MIC S11 / MIC S8 / MIC S10: unit not given beside the values; conditions: for MIC S9: E. coli ATCC 35218
# Description: The MIC of antibacterial compounds against multiple species and strains was determined using the broth microdilution method according to M07-A10 Clinical and Laboratory Standards Institute (CLSI) guidelines (CLSI (2015) Methods for dilution antimicrobial susceptibility tests for bacteria that grow aerobically; Approved Standard, Tenth Edition. CLSI Document M7-A10 (ISBN 1-56238-987-4). Wayne, Pa.: Clinical and Laboratory Standards Institute, 19087, USA.). In short, bacterial strain preparation was performed on D1 and D2. […] 5-10 well-isolated colonies of similar morphology were selected and re-streaked onto fresh agar plates using sterile loops and incubated for 20-24 hr at 35±2° C. Bacterial strains were subcultured two times to ensure fresh inoculums for MIC screening. […] Alternatively, 1-2 colonies were transferred into 500 μL of saline and OD600 was adjusted to ˜0.1 using an OD meter. Bacterial inoculum was diluted by 1:280 for Gram-positive strains and 1:400 for Gram-negative strains into corresponding medium broth (CAMHB, CAMHB+3% lysed horse blood, HTM) (e.g. 35.6 μL of inoculum into 10 mL of CAMHB or 25 μL of inoculum into 10 mL of CAMHB). For compound plate, the compound stock solutions were prepared in 100% DMSO on the day of MIC screening and used immediately. Compound stock concentration=[(highest testing concentration)×100 μL/2 μL] (e.g. if the required highest testing concentration is 64 μg/mL in assay plates, stock concentration=64 μg/mL×100 μL/2 μL=3.2 mg/mL). […] 1 μL of each well was transferred in a new MTP, which served as the test plate by subsequent inoculation. The bacterial suspension prepared above is dispensed at 98 μL/well within 15 minutes after preparation. Negative controls (lack of bacterial cells) and growth control wells (lack of compound) were included in all plates. MTPs were incubated for 18-24 hours at 35±2° C. in ambient air. The MIC was recorded and CFUs were calculated on Day 4. The assay plate was placed on the top of MIC reader, and the magnification mirror was adjusted to read each wells, recording growth status as raw data. Photo images of each assay plates were recorded using Q Count 530 (Spiral Biotech). The MIC value of each compound, expressed as μg/mL, was determined as the lowest concentration required for complete growth inhibition (no visible growth).
# [5] = Acinetobacter baumannii, ATCC19606, read-out: MIC S1, A. baumannii ATCC 19606
# [6] = Acinetobacter baumannii, ATCC51432, read-out: MIC S2, A. baumannii ATCC 51432
# [7] = Acinetobacter baumannii, ATCCBAA747, read-out: MIC S3, A. baumannii ATCC BAA-747
# [8] = Escherichia coli, ATCC25922, read-out: MIC S11, E. coli ATCC 25922
# [9] = Escherichia coli, ATCCBAA2340, read-out: MIC S10, E. coli ATCC BAA-2340
# [10] = Klebsiella pneumoniae, ATCC10031, read-out: MIC S4, K. pneumoniae ATCC 10031
# [11] = Klebsiella pneumoniae, ATCC700603, read-out: MIC S5, K. pneumoniae ATCC 700603
# [12] = Klebsiella pneumoniae, ATCCBAA2146, read-out: MIC S6, K. pneumoniae ATCC BAA-2146
# [13] = Pseudomonas aeruginosa, ATCC27853, read-out: MIC S7, P. aeruginosa ATCC 27853
# [14] = Pseudomonas aeruginosa, ATCCBAA2113, read-out: MIC S8, P. aeruginosa ATCC BAA-2113
SMILES,IC50 [1] [nM],IC50 [2] [nM],IC50 [3] [nM],"MIC [4, 5] [µg/mL]","MIC [4, 6] [µg/mL]","MIC [4, 7] [µg/mL]",MIC S9 [4],"MIC [4, 8] [µg/mL]","MIC [4, 9] [µg/mL]","MIC [4, 10] [µg/mL]","MIC [4, 11] [µg/mL]","MIC [4, 12] [µg/mL]","MIC [4, 13] [µg/mL]","MIC [4, 14] [µg/mL]"
"CNc1cc(F)c(F)c2c1[nH]c1ncc(-c3ccc4c(C5CC5)cc(C(=O)O)c(=O)n4c3)c(N3CC[C@H]4CN(C)C[C@H]43)c12 (relative stereo) [Example 2.05, 7-[4-[cis-5-methyl-2,3,3a,4,6,6a-hexahydropyrrolo[2,3-c]pyrrol-1-yl]-5,6-difluoro-8-(methylamino)-9H-pyrido[2,3-b]indol-3-yl]-1-cyclopropyl-4-oxo-quinolizine-3-carboxylic acid]",< 98,< 98,< 98,–,–,–,–,–,–,–,–,–,–,–
"CNc1cc(F)c(F)c2c1[nH]c1ncc(-c3cc(C)c4ccc(C(=O)O)c(=O)n4c3)c(N(C)C)c12 [Example 1.20, 7-[4-(dimethylamino)-5,6-difluoro-8-(methylamino)-9H-pyrido[2,3-b]indol-3-yl]-9-methyl-4-oxo-quinolizine-3-carboxylic acid]",–,–,–,0.187,1.49,0.746,0.559,0.42,0.559,0.187,1.49,2.98,2.98,2.24
"CNc1cc(F)c(F)c2c1[nH]c1ncc(-c3ccc4ccc(C(=O)O)c(=O)n4c3)c(N3CCC(C4(N)CC4)C3)c12 (stereo not drawn) [Example 1.21, 7-[4-[3-(1-aminocyclopropyl)pyrrolidin-1-yl]-5,6-difluoro-8-(methylamino)-9H-pyrido[2,3-b]indol-3-yl]-4-oxo-quinolizine-3-carboxylic acid]",–,–,–,0.603,1.21,1.21,0.603,0.34,0.302,0.038,4.83,4.83,1.21,2.41
"CNc1cc(F)c(C#N)c2c1[nH]c1ncc(-c3ccc4ccc(C(=O)O)c(=O)n4c3)c(N(C)C)c12 [Example 1.18, 7-[5-cyano-4-(dimethylamino)-6-fluoro-8-(methylamino)-9H-pyrido[2,3-b]indol-3-yl]-4-oxo-quinolizine-3-carboxylic acid]",–,–,–,0.092,0.367,0.184,0.046,0.551,0.046,0.046,0.092,0.735,0.367,0.184
"CNc1cc(F)c(F)c2c1[nH]c1ncc(-c3ccc4ccc(C(=O)O)c(=O)n4c3)c(N3CC4C(N(C)C)CO[C@@H]4C3)c12 (stereo partly drawn) [Example 1.06, 7-[4-[cis-3-(dimethylamino)-2,3,3a,4,6,6a-hexahydrofuro[2,3-c]pyrrol-5-yl]-5,6-difluoro-8-(methylamino)-9H-pyrido[2,3-b]indol-3-yl]-4-oxo-quinolizine-3-carboxylic acid]",137,< 98,< 98,–,–,–,–,–,–,–,–,–,–,–
"CNc1cc(F)c(F)c2c1[nH]c1ncc(-c3ccc4ccc(C(=O)O)c(=O)n4c3)c(N3C[C@@H]4[C@H](C3)[C@H]4N(C)C)c12 [Example 1.13, 7-(4-((1R,5S,6S)-6-(dimethylamino)-3-azabicyclo[3.1.0]hexan-3-yl)-5,6-difluoro-8-(methylamino)-9H-pyrido[2,3-b]indol-3-yl)-4-oxo-4H-quinolizine-3-carboxylic acid]",< 98,< 98,< 98,–,–,–,–,–,–,–,–,–,–,–
